Consider one compound from patent publication US20230201203A1, “METHODS OF TREATMENT USING A[…] PHARMACEUTICAL FORMULATIONS COMPRISING ANTIFOLATES” (EMPHASCIENCE, INC., priority 2020, published 2023).

This data set is described as follows: in vitro. The following applies: human.

For `Nc1nc2[nH]cc(CCc3ccc(C(=O)N[C@@H](CCC(=O)O)C(=O)O)cc3)c2c(=O)[nH]1` [pemetrexed], the CC50 is no less than 74 mg/L.
